Measured values taken from patent US20100093642A1, “NOVEL POLYPEPTIDES” (priority 2006, published 2010).
Converted amounts (≈) assume the structure as drawn. Read-outs that look alike come from different tables or passages of the source. Residues, ends and D or L forms follow the SMILES beside them. No end group written: not given here.

Assays:
Botrytis cinerea 101 = conditions: 48 h
In short: (§1)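 Broth microdilution in half-strength potato dextrose broth, final 2×10^5 spores per ml, peptides in two-fold dilutions from 50 μM to 0.1 μM final. Incubated in the dark without shaking at 25° C. (37° C. for C. albicans) for 48 h; MIC is lowest concentration giving 50% inhibition of visible growth, scored microscopically.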

Saccharomyces cerevisiae = conditions: 48 h
In short: as §1

[1] = test system: Candida albicans (ATCC 10231)
In short: as §1

[2] = test system: murine colon carcinoma cell line CT26; assay type: cell-based; conditions: 4 h
Experimental: The cytotoxic effects of the peptides on different human tumour cells were measured using the MTT colorimetric assay (Mosmann, 1983). MIT (3-(4-5-dimethylthiazol-2-yl)-2,5-diphenyl tetrazolium bromide) is a soluble tetrazolium salt yielding a yellow solution when prepared in media or salt solutions lacking phenol red. Dissolved MIT is converted to an insoluble purple formazan by cleavage of the tetrazolium ring by dehydrogenase enzymes. This water insoluble formazan can be solubilized using isopropanol or other solvents and the dissolved material is measured spectrophotometrically. The absorbance was measured as a function of concentration of converted dye. The conversion of the soluble dye to the insoluble purple formazan is utilized in assays for measurement of cell proliferation. […] We used this assay to measure the degree of cell death caused by the peptides.
CT26 and A20 were maintained in RPMI-1640 medium supplemented with 10% heat inactivated FBS and 1% L-glutamine in a humidified atmosphere of 5% CO2 at 37° C. The human embryonic fibroblast cell line, MRC-5, was cultured as a monolayer in MEM medium, under the same conditions as described for the tumour cell lines. CT26 and MRC-5 cells to be used in the assay were grown to a minimum of 75% confluency, trypsinated and split to single cell suspension, counted and centrifuged at 1500 rpm for 7 min. The cell pellet was resuspended to a concentration of 1-2×10^5 cells/ml in RPMI-1640 medium without FBS and L-glutamine-L-alanine (assay-medium). The A20 cells were grown in suspension and adjusted to a concentration of 6×10^5 cells/ml in assay medium. All cell lines were routinely tested for mycoplasma infection using a PCR-based mycoplasma detection kit (MycoSensor PCR Assay Kit, Stratagene), following the supplier's instructions. All cell lines were mycoplasma free.
The cytotoxicity was measured using the MTT method (Mosmann, 1983), with minor modifications. The adherent cells (CT26 and MRC-5) were applied in 96-well culture plates in a volume of 100 μl assay medium and incubated at 37° C. for 24 hours. The A20 cells were applied to the microtiter plates just prior to testing. The medium was removed and the cells were treated with 100 μl of peptide solution (concentrations ranging from 0 to 400 μg/ml), diluted in serum-free medium, and the plates were incubated at 37° C. for 4 hours. Cells treated with Triton X-100 (1%) were used as positive control (100% killing) whereas cells plus medium only were used as negative control. Following the incubation period, 10 and 20 μl MTT (5 mg/ml, dissolved in PBS) were added to each well in the adherent cells (CT26 and MRC-5) and the A20 cells, respectively. After further incubation for 2 hours, a volume of 70 μl of the supernatant was removed and 100 μl acid alcohol (0.04 M HCl in isopropanol) added to each well in the adherent cell lines. For the cells grown in suspension (A20), a volume of 130 μl of the supernatant was removed and 100 μl acid alcohol was added. The plates were placed on a shaker for 1 hour at room temperature and read spectrophotometrically at 590 nm in a microtiter plate reader (Thermomax Molecular devices, New Jersey, USA). Cell survival (%, averaging at least 2 parallels) and IC50 values were estimated as described above.

[3] = yeast, more than 50% inhibition of visible growth
[4] = yeast, more than 50% inhibition of visible growth, 48 h, 37° C.

Row | Compound | Minimal inhibitory concentration (MIC), Botrytis cinerea (Botrytis cinerea 101) [µM] | Minimal inhibitory concentration (MIC), Saccharomyces cerevisiae (Saccharomyces cerevisiae) [µM] | Minimal inhibitory concentration (MIC), Candida albicans ([1]; ATCC 10231, 48 h) [µM] | IC50 [2] [µM] | Minimal inhibitory concentration (MIC), Saccharomyces cerevisiae (Saccharomyces cerevisiae; [3]) [µM] | Minimal inhibitory concentration (MIC), Candida albicans [1, 4] [µM]
1 | CC[C@H](C)[C@H](NC(=O)CNC(=O)[C@H](CO)NC(=O)[C@H](CCCCN)NC(=O)[C@@H](NC(=O)[C@H](C)NC(=O)[C@H](Cc1c[nH]cn1)NC(=O)[C@H](CO)NC(=O)[C@@H](NC(=O)[C@H](CCCCN)NC(=O)[C@H](Cc1c[nH]cn1)NC(=O)[C@H](Cc1ccccc1)NC(=O)[C@@H](NC(=O)[C@H](CCCCN)NC(=O)[C@H](CCCCN)NC(=O)[C@H](Cc1ccccc1)NC(=O)C(Cc1c[nH]c2ccc(Br)cc12)NC(=O)CN)[C@@H](C)O)C(C)C)C(C)C)C(=O)N[C@@H](Cc1c[nH]cn1)C(=O)N[C@@H](C)C(=O)O (stereo partly drawn) [P17 HC-Br (1-20)] (HELM PEPTIDE1{G.[O=C(C(Cc1c[nH]c2ccc(Br)cc12)N[*:1])[*:2]].F.K.K.T.F.H.K.V.S.H.A.V.K.S.G.I.H.A}$$$$V2.0; N-terminus and C-terminus assumed) | 50 (≈ 117 µg/mL) | 12.5 (≈ 29.3 µg/mL) | 6.25 (≈ 14.7 µg/mL) | 59.7 | – | –
2 | CC[C@H](C)[C@H](NC(=O)CNC(=O)[C@H](CO)NC(=O)[C@H](CCCCN)NC(=O)[C@@H](NC(=O)[C@H](C)NC(=O)[C@H](Cc1c[nH]cn1)NC(=O)[C@H](CO)NC(=O)[C@@H](NC(=O)[C@H](CCCCN)NC(=O)[C@H](Cc1c[nH]cn1)NC(=O)[C@H](Cc1ccccc1)NC(=O)[C@@H](NC(=O)[C@H](CCCCN)NC(=O)[C@H](CCCCN)NC(=O)[C@H](Cc1ccccc1)NC(=O)C(Cc1c[nH]c2ccc(Br)cc12)NC(=O)CN)[C@@H](C)O)C(C)C)C(C)C)C(=O)N[C@@H](Cc1c[nH]cn1)C(=O)N[C@@H](C)C(=O)NCC(=O)N[C@@H](CCC(N)=O)C(=O)N[C@@H](CCCNC(=N)N)C(=O)NCC(=O)N[C@@H](CS)C(=O)N[C@@H](CO)C(=O)N[C@@H](C)C(=O)N[C@@H](CC(C)C)C(=O)NCC(=O)N[C@@H](Cc1ccccc1)C(=O)O (stereo partly drawn) [P17 HC-Br] (HELM PEPTIDE1{G.[O=C(C(Cc1c[nH]c2ccc(Br)cc12)N[*:1])[*:2]].F.K.K.T.F.H.K.V.S.H.A.V.K.S.G.I.H.A.G.Q.R.G.C.S.A.L.G.F}$$$$V2.0) | 25 (≈ 83 µg/mL) | – | – | 33.1 | 6.25 (≈ 20.8 µg/mL) | 6.25 (≈ 20.8 µg/mL)
3 | GWFKKTFHKVSHAVKSGIHA [P17 HC (1-20)] | 100 | 12.5 | 6.25 | – | – | –
4 | GWFKKTFHKVSHAVKSGIHAGQRGCSALGF [P17 HC] | 50 | – | – | 20.4 | 6.25 | 6.25
